Source: the supplement of paper PMC10307832

Key:
Assay in all cases: relative viability (nuclei count vs DMSO), 5 days (fraction); higher = more cells survive
ABC-1 = test system: ABC-1
Procedure, shortened: (§1)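 Lung cancer cell lines in 1536-well plates got either a single drug or a fixed anchor-drug dose together with five library-drug doses (not always all listed) in √10 steps, by pin tool, on the day after seeding. Nuclei were counted after 5 days, and relative viability is the treated-to-vehicle ratio of nuclei counts. Values are medians of duplicate plates.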

CAL-12T = test system: CAL-12T
Procedure, shortened: as §1

ChaGo-K-1 = test system: ChaGo-K-1
Procedure, shortened: as §1

HCC-366 = test system: HCC-366
Procedure, shortened: as §1

HCC-78 = test system: HCC-78
Procedure, shortened: as §1

LC-2-ad = test system: LC-2-ad
Procedure, shortened: as §1

LOU-NH91 = test system: LOU-NH91
Procedure, shortened: as §1

LU99A = test system: LU99A
Procedure, shortened: as §1

NCI-H1395 = test system: NCI-H1395
Procedure, shortened: as §1

NCI-H1651 = test system: NCI-H1651
Procedure, shortened: as §1

NCI-H1734 = test system: NCI-H1734
Procedure, shortened: as §1

NCI-H1755 = test system: NCI-H1755
Procedure, shortened: as §1

NCI-H1793 = test system: NCI-H1793
Procedure, shortened: as §1

NCI-H1944 = test system: NCI-H1944
Procedure, shortened: as §1

NCI-H2087 = test system: NCI-H2087
Procedure, shortened: as §1

NCI-H2170 = test system: NCI-H2170
Procedure, shortened: as §1

NCI-H2228 = test system: NCI-H2228
Procedure, shortened: as §1

NCI-H2405 = test system: NCI-H2405
Procedure, shortened: as §1

NCI-H3122 = test system: NCI-H3122
Procedure, shortened: as §1

NCI-H460 = test system: NCI-H460
Procedure, shortened: as §1

PC-3 [JPC-3] = test system: PC-3 [JPC-3]
Procedure, shortened: as §1

RERF-LC-KJ = test system: RERF-LC-KJ
Procedure, shortened: as §1

UMC-11 = test system: UMC-11
Procedure, shortened: as §1

O=C(O)c1ccc(-c2c[nH]c3ncc(-c4ccccc4)cc23)cc1C1CCCC1 + COc1cc2c(Oc3ccc(NC(=O)C4(C(=O)Nc5ccc(F)cc5)CC4)cc3F)ccnc2cc1OCCCN1CCOCC1 [Foretinib] (partner 0.25 µM)
relative viability (ABC-1; first compound 0.04 µM): 1.02
relative viability (ABC-1; first compound 0.1265 µM): 1.24
relative viability (ABC-1; first compound 0.4 µM): 1.04
relative viability (ABC-1; first compound 1.265 µM): 0.936
relative viability (CAL-12T; first compound 0.04 µM): 1.22
relative viability (CAL-12T; first compound 0.1265 µM): 1.07
relative viability (CAL-12T; first compound 0.4 µM): 1.13
relative viability (CAL-12T; first compound 1.265 µM): 0.997
relative viability (ChaGo-K-1; first compound 0.04 µM): 0.995
relative viability (ChaGo-K-1; first compound 0.1265 µM): 0.928
relative viability (ChaGo-K-1; first compound 0.4 µM): 0.833
relative viability (ChaGo-K-1; first compound 1.265 µM): 0.863
relative viability (HCC-366; first compound 0.04 µM): 0.948
relative viability (HCC-366; first compound 0.1265 µM): 0.951
relative viability (HCC-366; first compound 0.4 µM): 0.894
relative viability (HCC-366; first compound 1.265 µM): 0.881
relative viability (HCC-78; first compound 0.1265 µM): 0.584
relative viability (HCC-78; first compound 0.4 µM): 0.524
relative viability (HCC-78; first compound 1.265 µM): 0.531
relative viability (LC-2-ad; first compound 0.04 µM): 0.973
relative viability (LC-2-ad; first compound 0.1265 µM): 0.935
relative viability (LC-2-ad; first compound 0.4 µM): 0.798
relative viability (LC-2-ad; first compound 1.265 µM): 0.702
relative viability (LOU-NH91; first compound 0.04 µM): 0.892
relative viability (LOU-NH91; first compound 0.1265 µM): 1.03
relative viability (LOU-NH91; first compound 0.4 µM): 0.927
relative viability (LOU-NH91; first compound 1.265 µM): 0.781
relative viability (LU99A; first compound 0.04 µM): 0.803
relative viability (LU99A; first compound 0.1265 µM): 0.783
relative viability (LU99A; first compound 0.4 µM): 0.729
relative viability (LU99A; first compound 1.265 µM): 0.677
relative viability (NCI-H1395; first compound 0.04 µM): 0.983
relative viability (NCI-H1395; first compound 0.1265 µM): 1.05
relative viability (NCI-H1395; first compound 0.4 µM): 1.01
relative viability (NCI-H1395; first compound 1.265 µM): 0.944
relative viability (NCI-H1651; first compound 0.04 µM): 0.786
relative viability (NCI-H1651; first compound 0.1265 µM): 0.806
relative viability (NCI-H1651; first compound 0.4 µM): 0.792
relative viability (NCI-H1651; first compound 1.265 µM): 0.607
relative viability (NCI-H1734; first compound 0.04 µM): 0.859
relative viability (NCI-H1734; first compound 0.1265 µM): 1.04
relative viability (NCI-H1734; first compound 0.4 µM): 0.731
relative viability (NCI-H1734; first compound 1.265 µM): 0.766
relative viability (NCI-H1755; first compound 0.04 µM): 0.913
relative viability (NCI-H1755; first compound 0.1265 µM): 1.02
relative viability (NCI-H1755; first compound 0.4 µM): 0.939
relative viability (NCI-H1755; first compound 1.265 µM): 0.861
relative viability (NCI-H1793; first compound 0.04 µM): 0.66
relative viability (NCI-H1793; first compound 0.1265 µM): 0.75
relative viability (NCI-H1793; first compound 0.4 µM): 0.702
relative viability (NCI-H1793; first compound 1.265 µM): 0.602
relative viability (NCI-H1944; first compound 0.04 µM): 0.923
relative viability (NCI-H1944; first compound 0.1265 µM): 0.988
relative viability (NCI-H1944; first compound 0.4 µM): 0.911
relative viability (NCI-H1944; first compound 1.265 µM): 0.807
relative viability (NCI-H2087; first compound 0.04 µM): 0.933
relative viability (NCI-H2087; first compound 0.1265 µM): 1.16
relative viability (NCI-H2087; first compound 0.4 µM): 1.06
relative viability (NCI-H2087; first compound 1.265 µM): 0.901
relative viability (NCI-H2170; first compound 0.04 µM): 0.994
relative viability (NCI-H2170; first compound 0.1265 µM): 1
relative viability (NCI-H2170; first compound 0.4 µM): 0.968
relative viability (NCI-H2170; first compound 1.265 µM): 0.777
relative viability (NCI-H2228; first compound 0.04 µM): 0.783
relative viability (NCI-H2228; first compound 0.1265 µM): 0.915
relative viability (NCI-H2228; first compound 0.4 µM): 0.871
relative viability (NCI-H2228; first compound 1.265 µM): 0.576
relative viability (NCI-H2405; first compound 0.04 µM): 1.05
relative viability (NCI-H2405; first compound 0.1265 µM): 1.1
relative viability (NCI-H2405; first compound 0.4 µM): 1.02
relative viability (NCI-H2405; first compound 1.265 µM): 0.747
relative viability (NCI-H3122; first compound 0.04 µM): 0.968
relative viability (NCI-H3122; first compound 0.1265 µM): 0.913
relative viability (NCI-H3122; first compound 0.4 µM): 0.891
relative viability (NCI-H3122; first compound 1.265 µM): 0.87
relative viability (NCI-H460; first compound 0.04 µM): 0.993
relative viability (NCI-H460; first compound 0.1265 µM): 1.14
relative viability (NCI-H460; first compound 0.4 µM): 0.962
relative viability (NCI-H460; first compound 1.265 µM): 0.917
relative viability (PC-3 [JPC-3]; first compound 0.04 µM): 1
relative viability (PC-3 [JPC-3]; first compound 0.1265 µM): 1.14
relative viability (PC-3 [JPC-3]; first compound 0.4 µM): 0.978
relative viability (PC-3 [JPC-3]; first compound 1.265 µM): 0.61
relative viability (RERF-LC-KJ; first compound 0.04 µM): 0.86
relative viability (RERF-LC-KJ; first compound 0.1265 µM): 0.865
relative viability (RERF-LC-KJ; first compound 0.4 µM): 0.933
relative viability (RERF-LC-KJ; first compound 1.265 µM): 0.837
relative viability (UMC-11; first compound 0.04 µM): 1.01
relative viability (UMC-11; first compound 0.1265 µM): 1.02
relative viability (UMC-11; first compound 0.4 µM): 0.982
relative viability (UMC-11; first compound 1.265 µM): 0.77
